# What was measured:
# [1] = tested on: GABAA receptor α4 and β3 subunits; assay: Biotinylation: cell surface levels of GABAA receptor subunits in hippocampal slices; type: cell-based, mouse; details: for GABAA-β3-containing receptors at the plasma membrane / cell surface stability of the β3 subunit: acute hippocampal slices
# Experimental: (§1) Hippocampi were dissected out of acute slices from 8 to 12 week old C57/Bl6 mice and lysed with […] including: 20 mM Tris-HCl, 150 mM NaCl, 5 mM EDTA, 10 mM NaF, 2 mM Na3VO4, 10 mM pyrophosphate, 0.1% SDS and 1% Triton after drug treatment. The β3 subunit was isolated using immunoprecipitation with β3 antibodies, after correction for protein content and the specific activity of labeling. Results were attained by SDS/PAGE followed by autoradiography (Abramian et al., 2010). For biotinylation experiments hippocampi were dissected out of acute slices from 8 to 12 week old C57/Bl6 mice and incubated in artificial cerebrospinal fluid (ACSF) described above at 30° C. for 1 h for recovery before experimentation. Slices were then placed on ice and incubated for 30 min with 1 mg/mL NHS-SS-biotin (Pierce). Excess biotin was removed by a 50 mM glycine quenching buffer, followed by washing of slices three times in ice-cold ACSF. The tissue was snap frozen on dry ice for 5 min, thawed at 4° C. and lysed. The lysates were solubilized with 2% Triton at 4° C. on a rotating wheel for 1 h. The insoluble material was removed by centrifugation, and 350-500 μg of protein lysate were incubated with NeutrAvidin beads (Pierce) for 18-24 h at 4° C. Bound material was eluted with sample buffer and subjected to SDS/PAGE and then immunoblotted with the indicated antibodies. Blots were then quantified using the CCD-based ChemiDoc XRS ? system. Antibodies against the β3 subunit and the phospho-β3 antibody were generated and verified by the laboratory of S.J.M. (Vien et al., 2015).
# Hippocampal slices were treated as outlined above. Treated slices were then subject to biotinylation and lysis, and surface fractions were isolated on immobilized avidin. Surface (S) and total (T) fractions were immunoblotted with α4 and β3 subunit antibodies.
# The ratio of surface/total (S/T) immunoreactivity was then normalized to levels seen in control (100%).
# [2] = tested on: GT1-7 cells; assay: Immunoblot of β3 S408/9 phosphorylation in GT1-7 cells; type: cell-based; details: 100 nM, 15 min
# Experimental: GT1-7 cells that co-express mPRα and GABAARs were used to measure the level of phosphorylation at S408/9 position of β3 subunit. […] Expression of mPRα was confirmed using western blotting.
# GT1-7 cells were treated with 100 nM AllO or P4 for 15 min and immunoblotted with antibodies specifically recognizing β3, actin, and […] β3 subunit (pS408/9). The ratio of pS408/9 β3 subunit immunoreactivity were then normalized to levels seen in vehicle treated to controls, n=6.
# [3] = tested on: DGGCs from mutant mice; assay: sIPSC decay time in DGGCs from mutant mice; type: cell-based, mouse; details: 100 nM ALLO
# Experimental: The ability of 100 nM ALLO to modulate the decay time of sIPSCs was compared in DGGCs from WT and S940A mice as detailed in FIG. 2.
# [4] = tested on: GABAA receptor β3 subunit S408/9; assay: Immunoblot of β3 S408/9 phosphorylation in hippocampal slices; type: cell-based, mouse; details: 20 min exposure (100 nM in FIG. 6)
# Experimental: Asterisks represent a significant difference from control (ALLO: p<0.01, Student's t-test, n=10 slices, from 10 mice; SGE-516: p<0.05, Student's t-test, n=4 slices, from 4 mice). […] Asterisks represent a significant difference from control (ALLO: p<0.05, Student's t-test, n=8 slices; SGE-516: p<0.05, Student's t-test, n=4 slices).
# as §1
# Treatment of hippocampal slices with SGE-516 increased the phosphorylation of S408/9 measured using pS408/9 antibodies. To produce antibodies specific for phosphorylated S443, rabbits were injected with a synthetic peptide corresponding to residues […] of the murine α4 subunit in which the serine residue corresponding to S443 was chemically phosphorylated; […]. Hippocampal slices were treated with vehicle (Con), or SGE-516 for 20 min. Slices were immunoblotted with pS408/9, β3, or actin antibodies. The ratio of pS408/9/β3 immunoreactivity was then normalized to control slices (100%=the line).
# Hippocampal slices were treated with 100 nM ALLO or P4 (progesterone), and S408/9 phosphorylation was then determined as detailed above, n=4 slices (FIG. 18D). Hippocampal slices were treated with 100 nM ORG (FIG. 18E). S408/9 phosphorylation was examined using immunoblotting. […]
# [5] = tested on: GT1-7 cells; assay: Patch-clamp of GABA-induced currents (IGABA) in GT1-7 cells; type: cell-based; details: 100 nM in electrolyte, GABA EC20, 20 min time course
# Experimental: Patch-clamp recordings were made from GT1-7 cells. The magnitude of the GABA-induced currents (IGABA) at EC20 agonists concentration were then measured, in the presence of control electrolyte or that supplemented with 100 nM ALLO, or 100 nM ORG OD 02-0 over a time course of 20 min.
# [6] = tested on: GABAA receptor α4 S443 and β3 S408/9; assay: Phosphorylation of S443 and S408/9 in brains of mice after IP injection; type: in vivo, mouse; details: 5 mg/kg IP, 30 min after treatment
# Experimental: C57/B16 mice injected with SGE-516 (5 mg/kg IP), or vehicle. 30 min after the treatment mice were sacrificed by microwave irradiation. SDS-soluble hippocampal extracts were then immunoblotted with pS443, α4, pS408/9, or β3 subunit antibodies.
# [7] = tested on: dentate gyrus granule cells (DGGCs); assay: sIPSCs in DGGCs after 15 min NAS exposure and >30 min wash; type: cell-based, mouse
# Experimental: Bar graphs show average sIPSC decay and amplitude.
# For tonic current measurements, an all-points histogram was plotted for a 10 s period before and during 100 μM picrotoxin application, once the response reached a plateau level. Recordings with unstable baselines were discarded. Fitting the histogram with a Gaussian distribution gave the mean baseline current amplitude and the difference between the amplitudes before and during picrotoxin was considered to be the tonic current. The negative section of the all-points histogram which corresponds to the inward IPSCs was not fitted with a Gaussian distribution (Kretschmannova et al., 2013; Nusser and Mody, 2002). Series resistance and whole-cell capacitance were continually monitored and compensated throughout the course of the experiment. Recordings were eliminated from data analysis if series resistance increased by >20%. Spontaneous inhibitory post-synaptic currents (sIPSCs) were analyzed using the mini-analysis software (version 5.6.4; Synaptosoft, Decatur, Ga.). […] Only recordings with a minimum of 200 events fitting these criteria were analyzed. sIPSCs amplitude, and frequency from each experimental condition was pooled and expressed as mean±SEM. To measure sIPSC decay, 100 consecutive events were averaged and the decay was fitted to a double exponential and the weighted decay constant (tw) was determined. […]
Compound,GABAA-β3-containing receptors at the plasma membrane / cell surface stability of the β3 subunit ([1]; 100 nM),S408/9 phosphorylation in GT1-7 cells [2],sIPSC decay time in the mutant mice [3],β3 S408/409 phosphorylation in hippocampal slices [4],GABA-evoked currents recorded from GT1-7 cells [5],"plasma membrane levels of GABAARs containing the α4 and β subunits, S/T normalized to control (100%) ([1]; WT mice slices, 100 nM, 20 min)","plasma membrane accumulation of both the α4 and β3 subunits ([1]; hippocampal slices, surface/total)",phosphorylation of S443 and S408/9 in the brains of mice [6],SGE-516 enhancement of sIPSC amplitude in presence of GFX ([7]; 100 nM SGE-516 with GFX),"sIPSC amplitude following exposure and wash ([7]; 100 nM, 15 min, >30 min wash)"
"CC(=O)[C@H]1CC[C@H]2[C@@H]3CC[C@H]4C[C@H](O)CC[C@]4(C)[C@H]3CC[C@]12C [ALLO, Allopregnanolone]",increases,increase,did not increase,increases,sustained increases,–,–,–,–,–
C[C@@]1(O)CC[C@@]2(C)[C@H](CC[C@@H]3[C@@H]2CC[C@]2(C)[C@@H](C(=O)Cn4nccn4)CC[C@@H]32)C1 [SGE-516],increases,–,–,increases,–,175-185%,increased,increased,significantly reduced,significantly enhanced
